# Source: patent US7781565B2 (priority 2006, dated 2010)
# “Also recorded” adds a separate entry of the source.
# System: NCI-60 cell lines
# Assay type: cell-based, human
substance,measurement,value
IGSGVGV,Cell Line the peptide is associated with (peptide recovered from phage library selection on this NCI-60 cell line),NCI/ADR-RES Breast
QRSSDLT,Cell Line (NCI-60 cell line the peptide and its motif are associated with),M14 Melanoma
YVGGRLR,Cell Line (NCI-60 cell line the peptide and its motif are associated with),OVCAR-5 Ovarian
LLSILKA,Cell Line (NCI-60 cell line the peptide and its motif are associated with),IGROV1 Ovarian
LLSFLGR,Cell Line with which the peptide (and its tripeptide motif) is associated,Molt-4-Leukemia
LLSRAQA,Cell Line the peptide is associated with (peptide recovered from phage library selection on this NCI-60 cell line),BT-549 Breast
INWAGLS,Cell Line with which the peptide (and its tripeptide motif) is associated,Hop-92-Lung
GHGSGSR,Cell Line the peptide is associated with (peptide recovered from phage library selection on this NCI-60 cell line),ACHN Renal
LIGGVLH,Cell Line (NCI-60 cell line the peptide and its motif are associated with),IGROV1 Ovarian
LVSTSNR,Cell Line (NCI-60 cell line the peptide and its motif are associated with),SK-MEL-2 Melanoma
SRLRAGS,Cell Line the peptide is associated with (peptide recovered from phage library selection on this NCI-60 cell line),T-47D Breast
GVSISDG,Cell Line the peptide is associated with (peptide recovered from phage library selection on this NCI-60 cell line),SN12C Renal
LGSSRVL,Cell Line with which the peptide (and its tripeptide motif) is associated,Hop-92-Lung
FVARLRV,Cell Line the peptide is associated with (peptide recovered from phage library selection on this NCI-60 cell line),TK-10 Renal
AHYTLRS,Cell Line (NCI-60 cell line the peptide is associated with),COLO-205-Colon
PTVSAGL,Cell Line the peptide is associated with (peptide recovered from phage library selection on this NCI-60 cell line),NCI/ADR-RES Breast
PDRASDG,Cell Line with which the peptide (and its tripeptide motif) is associated,Hop-62-Lung
DRGLGMS,Cell Line (NCI-60 cell line the peptide and its motif are associated with),786-0 Renal
HGLGSGT,Cell Line with which the peptide (and its tripeptide motif) is associated,RPMI-8226-Leukemia
FSLGSSP,Cell Line the peptide is associated with (peptide recovered from phage library selection on this NCI-60 cell line),UO31 Renal
LGGLGIH,Cell Line (NCI-60 cell line the peptide is associated with),SF-295 CNS
KAASTED,Cell Line the peptide is associated with (peptide recovered from phage library selection on this NCI-60 cell line),SN12C Renal
WRASAFT,Cell Line with which the peptide (and its tripeptide motif) is associated,SR Leukemia
RAVEMGT,Cell Line with which the peptide (and its tripeptide motif) is associated,H460-Lung
RHGPGVL,Cell Line (NCI-60 cell line the peptide and its motif are associated with),OVCAR-3 Ovarian
GSVLMRG,Cell Line (NCI-60 cell line the peptide and its motif are associated with),OVCAR-4 Ovarian
SHRSSTG,Cell Line the peptide is associated with (peptide recovered from phage library selection on this NCI-60 cell line),T-47D Breast
HVGLLRA,Cell Line with which the peptide (and its tripeptide motif) is associated,Hop-62-Lung
ARVSGRV,Cell Line with which the peptide (and its tripeptide motif) is associated,H23-Lung
TRSSLTH,Cell Line the peptide is associated with (peptide recovered from phage library selection on this NCI-60 cell line),TK-10 Renal
FAASGVL,Cell Line (NCI-60 cell line the peptide and its motif are associated with),UACC 257 Melanoma
CMLRSAT,Cell Line (NCI-60 cell line the peptide and its motif are associated with),SK-MEL-2 Melanoma
GTGAAVF,Cell Line the peptide is associated with (peptide recovered from phage library selection on this NCI-60 cell line),RXF393 Renal
SRFGPSV,Cell Line with which the peptide (and its tripeptide motif) is associated,H322-Lung
TGLLRLY,Cell Line the peptide is associated with (peptide recovered from phage library selection on this NCI-60 cell line),RXF393 Renal
VRRSSKF,Cell Line the peptide is associated with (peptide recovered from phage library selection on this NCI-60 cell line),BT-549 Breast
RGGLPRG,Cell Line (NCI-60 cell line the peptide is associated with),HCT-15 Colon
RRPGLRS,Cell Line (NCI-60 cell line the peptide is associated with),HT-29 Colon
SSVASLV,Cell Line (NCI-60 cell line the peptide is associated with),SNB-19 CNS; also recorded: SF-539 CNS
SNGLRVV,Cell Line the peptide is associated with (peptide recovered from phage library selection on this NCI-60 cell line),ACHN Renal
LQHLGSG,Cell Line (NCI-60 cell line the peptide and its motif are associated with),OVCAR-8 Ovarian
RAAGGSR,Cell Line with which the peptide (and its tripeptide motif) is associated,RPMI-8226-Leukemia
AFFMGLR,Cell Line the peptide is associated with (peptide recovered from phage library selection on this NCI-60 cell line),ACHN Renal
ASYAGLV,Cell Line (NCI-60 cell line the peptide and its motif are associated with),IGROV1 Ovarian
PAGRMLS,Cell Line (NCI-60 cell line the peptide and its motif are associated with),SK-MEL-2 Melanoma
LLRGLEL,Cell Line with which the peptide (and its tripeptide motif) is associated,HL-60-Leukemia
QGLVRGG,Cell Line (NCI-60 cell line the peptide and its motif are associated with),OVCAR-4 Ovarian
NCYSLRS,Cell Line (NCI-60 cell line the peptide and its motif are associated with),OVCAR-4 Ovarian
STEGGGL,Cell Line with which the peptide (and its tripeptide motif) is associated,Molt-4-Leukemia
AGLWPWN,Cell Line the peptide is associated with (peptide recovered from phage library selection on this NCI-60 cell line),CAIK-1 Renal
FDRGVEA,Cell Line with which the peptide (and its tripeptide motif) is associated,K-562-Leukemia
FTRGAAS,Cell Line (NCI-60 cell line the peptide and its motif are associated with),SK-MEL-2 Melanoma
RRLSYFH,Cell Line (NCI-60 cell line the peptide is associated with),HT-29 Colon
GGSSLDA,Cell Line (NCI-60 cell line the peptide is associated with),HCT-116 Colon
RLGSSGL,Cell Line the peptide is associated with (peptide recovered from phage library selection on this NCI-60 cell line),RXF393 Renal
GSARGML,Cell Line with which the peptide (and its tripeptide motif) is associated,SR Leukemia
GGSLKWV,Cell Line (NCI-60 cell line the peptide and its motif are associated with),SK-MEL-2 Melanoma
RGVVSAK,Cell Line with which the peptide (and its tripeptide motif) is associated,Hop-92-Lung
TLGRLSS,Cell Line (NCI-60 cell line the peptide and its motif are associated with),DU-145 Prostate
TWHAGGI,Cell Line the peptide is associated with (peptide recovered from phage library selection on this NCI-60 cell line),ACHN Renal
RRSSKQA,Cell Line with which the peptide (and its tripeptide motif) is associated,A549-Lung
LGLSGLG,Cell Line the peptide is associated with (peptide recovered from phage library selection on this NCI-60 cell line),NCI/ADR-RES Breast
AAGRSRI,Cell Line (NCI-60 cell line the peptide and its motif are associated with),M14 Melanoma
RGLVRVV,Cell Line (NCI-60 cell line the peptide is associated with),COLO-205-Colon
FEDLLSL,Cell Line (NCI-60 cell line the peptide is associated with),MALME-3M Melanoma
